According to ChEMBL document CHEMBL1157918, “The development and SAR of pyrrolidine carboxamide 11beta-HSD1 inhibitors” (Bioorg Med Chem Lett, 2010):

How the values were obtained:
in vitro = conditions: human, liver microsomes
Description: Intrinsic clearance in human liver microsomes

Mus musculus [1] = organism: Mus musculus; assay: animal or person; conditions: C57BL, Plasma, po, read-out: INH
Description: Inhibition of 11-beta-HSD1 in C57BL mouse assessed as reduction of plasma cortisol level at 1 mg/kg, po administered 30 mins before cortisone challenge measured after 60 mins by ELISA relative to control

Mus musculus [2] = organism: Mus musculus; assay: animal or person; conditions: C57BL, Plasma, po, read-out: INH; remark: listed apart in the source
Description: Inhibition of 11-beta-HSD1 in C57BL mouse assessed as reduction of plasma cortisol level at 3 mg/kg, po administered 30 mins before cortisone challenge measured after 60 mins by ELISA relative to control

Mus musculus [3] = organism: Mus musculus; assay: animal or person; conditions: C57BL, Plasma, po, read-out: INH; remark: listed apart in the source
Description: Inhibition of 11-beta-HSD1 in C57BL mouse assessed as reduction of plasma cortisol level at 100 mg/kg, po administered 30 mins before cortisone challenge measured after 60 mins by ELISA relative to control

Mus musculus [4] = organism: Mus musculus; assay: animal or person; conditions: C57BL, Plasma, po, read-out: INH; remark: listed apart in the source
Description: Inhibition of 11-beta-HSD1 in C57BL mouse assessed as reduction of plasma cortisol level at 10 mg/kg, po administered 30 mins before cortisone challenge measured after 60 mins by ELISA relative to control

Mus musculus [5] = organism: Mus musculus; assay: animal or person; conditions: C57BL, Plasma, po, read-out: INH; remark: listed apart in the source
Description: Inhibition of 11-beta-HSD1 in C57BL mouse assessed as reduction of plasma cortisol level at 30 mg/kg, po administered 30 mins before cortisone challenge measured after 60 mins by ELISA relative to control

`O=C(NC1C2CC3CC(C2)CC1C3)[C@H]1CCCN1CC1CCOCC1` (some centres not stated) gave a CLint scaled (in vitro) of 20.3 mL/min/kg.

With `CCCN1CCC[C@@H]1C(=O)NC1C2CC3CC(C2)CC1C3` (some centres not stated) the CLint scaled (in vitro) was 93.3 mL/min/kg.

In the case of `O=C(NC1C2CC3CC(C2)CC1C3)[C@H]1CCCN1CC1CCC1` (some centres not stated), the CLint scaled (in vitro) is reported as 85.8 mL/min/kg.

In the case of `O=C(NC1C2CC3CC(C2)CC1C3)[C@H]1CCCN1c1ccccn1` (some centres not stated), the CLint scaled (in vitro) is reported as 79.2 mL/min/kg.

In the case of `CCN1CCC[C@@H]1C(=O)NC1C2CC3CC(C2)CC1C3` (some centres not stated), the inhibition in vivo at 1 mg/kg (Mus musculus [1]) is reported as 52%, the inhibition in vivo at 3 mg/kg (Mus musculus [2]) is reported as 46% and the CLint scaled (in vitro) is reported as 43.9 mL/min/kg. For the same molecule, the inhibition in vivo at 100 mg/kg (Mus musculus [3]) was 18%, the inhibition in vivo at 10 mg/kg (Mus musculus [4]) was 23% and the inhibition in vivo at 30 mg/kg (Mus musculus [5]) was 20%.

Molecule `O=C(NC1C2CC3CC(C2)CC1C3)[C@H]1CCCN1CC1(O)CCCC1` (some centres not stated) has a CLint scaled (in vitro) of 86.2 mL/min/kg.

`N#Cc1ccc(CN2CCC[C@@H]2C(=O)NC2C3CC4CC(C3)CC2C4)cc1` (some centres not stated) gave a CLint scaled (in vitro) of 73.2 mL/min/kg.

Work on `O=C(NC1C2CC3CC(C2)CC1C3)[C@H]1CCCN1CC1CCCCC1` (some centres not stated) yielded a CLint scaled (in vitro) of 62.8 mL/min/kg.

With `O=C(NC1C2CC3CC(C2)CC1C3)[C@H]1CCCN1CC1CCCC1` (some centres not stated) the CLint scaled (in vitro) was 75.3 mL/min/kg.

For `CN1CCC[C@@H]1C(=O)NC1C2CC3CC(C2)CC1C3` (some centres not stated), the CLint scaled (in vitro) was 22.2 mL/min/kg.

`O=C(NC1C2CC3CC(C2)CC1C3)[C@H]1CCCN1CC1(O)CCCCC1` (some centres not stated) gave a CLint scaled (in vitro) of 64.6 mL/min/kg.

In the case of `CC(C)CN1CCC[C@@H]1C(=O)NC1C2CC3CC(C2)CC1C3` (some centres not stated), the CLint scaled (in vitro) is reported as 79.3 mL/min/kg.
